Data from patent US11679110B2, “Methods of treating disorders using CSF1R inhibitors” (Deciphera Pharmaceuticals, LLC, priority 2018, dated 2023).
Where two headings read alike, the source gives them in different places.

Assay: Plasma pharmacokinetics of Compound 1 in patients with advanced solid tumor malignancies and TGCT
Assay type: in vivo, human
Details: for Cmax / AUC(0-t) / Tmax: human, plasma, oral; for Tmax: Median (Min, Max)
Method: PK analysis was conducted on all 38 patients. Serial blood samples were collected for PK and took place on either Day −7, Cycle 1, Day 1 (C1D1) and C2D1 at pre-dose, 0.5, 1, 2, 4, 6, 8, 10-12, and 24 hr time points or Day −7, C1D1, C1D8, and C2D1 at pre-dose, 1, 2, 4, 6, and 8 hr time points, or C1D1, C1D8, and C2D1 at pre-dose, 1, 2, 4, 6, and 8 hr time points. High fat meal was given prior to dosing of Compound 1 on Day −7. PD effects were measured by two methodologies: 1) depletion of CSF1R-expressing monocytes in peripheral blood (Cohorts 1-7) from C1D1, C1D15 and C2D1; and 2) increase of plasma levels of CSF1 and IL-34, the ligands for CSF1R (Cohorts 1-7) on C1D1, C1D15, and C2D1. For the CD16^+ monocyte assay, whole blood collected in an EDTA vacutainer was aliquoted into tubes and incubated with fluorescently-labeled antibodies (CD14-Alexa488 (BD Pharmingen); CD16-PE-Cy7 (BD Pharmingen); and TIE2-APC (R&D Systems). After incubation, red blood cells were lysed, and the remaining cells were washed several times before being analyzed on a flow cytometer. For the plasma CSF1 assay or IL-34, whole blood collected in an EDTA vacutainer was centrifuged, and the plasma was collected and frozen. Plasma levels of CSF1 or IL-34 were measured using a commercial ELISA kit (R&D Systems).
Cohort 1 had daily dosing.

Question: With Cc1nc(-c2cnc(NC(C)C)n(C)c2=O)ccc1Oc1ccnc(-c2cnn(C)c2)c1 [Compound 1, 2-(isopropylamino)-3-methyl-5-(6-methyl-5-((2-(1-methyl-1H-pyrazol-4-yl)pyridin-4-yl)oxy)pyridin-2-yl)pyrimidin-4(3H)-one] as the compound, how does the Cmax (20 mg, Cohort 3 20 mg Weekly after 5-day QD loading dose, Day-7, GM (CV %)) read?
Answer: 242 ng/mL

Question: And the AUC(0-t) (20 mg, Cohort 3 20 mg Weekly after 5-day QD loading dose, Day-7, GM (CV %), read-out: AUC0-8)?
Answer: 1320 ng·h/mL

Question: What about the Tmax (20 mg, Cohort 3 20 mg Weekly after 5-day QD loading dose, Day-7) of the same compound?
Answer: 4 h

Question: And the Cmax (20 mg, Cohort 4 20 mg QD x 5 d, BIW maintenance dose, C1D1, Geo Mean)?
Answer: 268 ng/mL

Question: And the AUC(0-t) (20 mg, Cohort 4 20 mg QD x 5 d, BIW maintenance dose, C1D1, Geo Mean, read-out: AUC0-8 h)?
Answer: 1610 ng·h/mL

Question: And the Cmax (20 mg, Cohort 4 20 mg QD x 5 d, BIW maintenance dose, C1D8, Geo Mean)?
Answer: 685 ng/mL

Question: What about the AUC(0-t) (20 mg, Cohort 4 20 mg QD x 5 d, BIW maintenance dose, C1D8, Geo Mean, read-out: AUC0-8 h) of the same compound?
Answer: 4660 ng·h/mL

Question: What about the Cmax (20 mg, Cohort 4 20 mg QD x 5 d, BIW maintenance dose, C2D1, Geo Mean) of the same compound?
Answer: 642 ng/mL

Question: And the AUC(0-t) (20 mg, Cohort 4 20 mg QD x 5 d, BIW maintenance dose, C2D1, Geo Mean, read-out: AUC0-8 h)?
Answer: 4300 ng·h/mL

Question: And the Cmax (20 mg, Cohort 4 20 mg QD x 5 d, BIW maintenance dose, Day -7, Geo Mean)?
Answer: 183 ng/mL

Question: What about the AUC(0-t) (20 mg, Cohort 4 20 mg QD x 5 d, BIW maintenance dose, Day -7, Geo Mean, read-out: AUC0-8 h) of the same compound?
Answer: 1090 ng·h/mL

Question: What about the Cmax (20 mg, Cohort 4 20 mg Twice Weekly after 5-day QD loading dose, C1D1, GM (CV %)) of the same compound?
Answer: 268 ng/mL

Question: And the AUC(0-t) (20 mg, Cohort 4 20 mg Twice Weekly after 5-day QD loading dose, C1D1, GM (CV %), read-out: AUC0-8)?
Answer: 1610 ng·h/mL

Question: And the Tmax (20 mg, Cohort 4 20 mg Twice Weekly after 5-day QD loading dose, C1D1)?
Answer: 0.75 h

Question: What about the Cmax (20 mg, Cohort 4 20 mg Twice Weekly after 5-day QD loading dose, C1D8, GM (CV %)) of the same compound?
Answer: 685 ng/mL

Question: And the AUC(0-t) (20 mg, Cohort 4 20 mg Twice Weekly after 5-day QD loading dose, C1D8, GM (CV %), read-out: AUC0-8)?
Answer: 4660 ng·h/mL

Question: What about the Tmax (20 mg, Cohort 4 20 mg Twice Weekly after 5-day QD loading dose, C1D8) of the same compound?
Answer: 2.25 h

Question: What about the Cmax (20 mg, Cohort 4 20 mg Twice Weekly after 5-day QD loading dose, C2D1, GM (CV %)) of the same compound?
Answer: 642 ng/mL

Question: And the AUC(0-t) (20 mg, Cohort 4 20 mg Twice Weekly after 5-day QD loading dose, C2D1, GM (CV %), read-out: AUC0-8)?
Answer: 4300 ng·h/mL

Question: And the Tmax (20 mg, Cohort 4 20 mg Twice Weekly after 5-day QD loading dose, C2D1)?
Answer: 0.5 h

Question: And the Cmax (20 mg, Cohort 4 20 mg Twice Weekly after 5-day QD loading dose, Day-7, GM (CV %))?
Answer: 183 ng/mL

Question: What about the AUC(0-t) (20 mg, Cohort 4 20 mg Twice Weekly after 5-day QD loading dose, Day-7, GM (CV %), read-out: AUC0-8) of the same compound?
Answer: 1090 ng·h/mL

Question: What about the Tmax (20 mg, Cohort 4 20 mg Twice Weekly after 5-day QD loading dose, Day-7) of the same compound?
Answer: 4 h

Question: And the AUC(0-t) (20 mg, Cohort 7 20 mg QD after 3-day 50 mg QD loading dose, C2D1, GM (CV %), read-out: AUC0-8)?
Answer: 7980 ng·h/mL

Question: And the Cmax (30 mg, Cohort 5 30 mg QD x 5 d, BIW maintenance dose, C1D1, Geo Mean)?
Answer: 600 ng/mL

Question: And the AUC(0-t) (30 mg, Cohort 5 30 mg QD x 5 d, BIW maintenance dose, C1D1, Geo Mean, read-out: AUC0-8 h)?
Answer: 3390 ng·h/mL

Question: And the Cmax (30 mg, Cohort 5 30 mg QD x 5 d, BIW maintenance dose, C1D8, Geo Mean)?
Answer: 1400 ng/mL

Question: What about the AUC(0-t) (30 mg, Cohort 5 30 mg QD x 5 d, BIW maintenance dose, C1D8, Geo Mean, read-out: AUC0-8 h) of the same compound?
Answer: 8800 ng·h/mL

Question: What about the Cmax (30 mg, Cohort 5 30 mg QD x 5 d, BIW maintenance dose, C2D1, Geo Mean) of the same compound?
Answer: 953 ng/mL

Question: And the AUC(0-t) (30 mg, Cohort 5 30 mg QD x 5 d, BIW maintenance dose, C2D1, Geo Mean, read-out: AUC0-8 h)?
Answer: 5420 ng·h/mL

Question: What about the Cmax (30 mg, Cohort 5 30 mg QD x 5 d, BIW maintenance dose, Day -7, Geo Mean) of the same compound?
Answer: 278 ng/mL

Question: And the AUC(0-t) (30 mg, Cohort 5 30 mg QD x 5 d, BIW maintenance dose, Day -7, Geo Mean, read-out: AUC0-8 h)?
Answer: 1390 ng·h/mL

Question: What about the Cmax (30 mg, Cohort 5 30 mg Twice Weekly after 5-day QD loading dose, C1D1, GM (CV %)) of the same compound?
Answer: 422 ng/mL

Question: And the AUC(0-t) (30 mg, Cohort 5 30 mg Twice Weekly after 5-day QD loading dose, C1D1, GM (CV %), read-out: AUC0-8)?
Answer: 2250 ng·h/mL

Question: What about the Tmax (30 mg, Cohort 5 30 mg Twice Weekly after 5-day QD loading dose, C1D1) of the same compound?
Answer: 1 h

Question: What about the Cmax (30 mg, Cohort 5 30 mg Twice Weekly after 5-day QD loading dose, C1D8, GM (CV %)) of the same compound?
Answer: 1160 ng/mL

Question: What about the AUC(0-t) (30 mg, Cohort 5 30 mg Twice Weekly after 5-day QD loading dose, C1D8, GM (CV %), read-out: AUC0-8) of the same compound?
Answer: 7160 ng·h/mL

Question: And the Tmax (30 mg, Cohort 5 30 mg Twice Weekly after 5-day QD loading dose, C1D8)?
Answer: 1 h

Question: And the Cmax (30 mg, Cohort 5 30 mg Twice Weekly after 5-day QD loading dose, C2D1, GM (CV %))?
Answer: 822 ng/mL

Question: What about the AUC(0-t) (30 mg, Cohort 5 30 mg Twice Weekly after 5-day QD loading dose, C2D1, GM (CV %), read-out: AUC0-8) of the same compound?
Answer: 5420 ng·h/mL

Question: What about the Tmax (30 mg, Cohort 5 30 mg Twice Weekly after 5-day QD loading dose, C2D1) of the same compound?
Answer: 1.5 h

Question: What about the Cmax (30 mg, Cohort 5 30 mg Twice Weekly after 5-day QD loading dose, Day-7, GM (CV %)) of the same compound?
Answer: 278 ng/mL

Question: And the AUC(0-t) (30 mg, Cohort 5 30 mg Twice Weekly after 5-day QD loading dose, Day-7, GM (CV %), read-out: AUC0-8)?
Answer: 1390 ng·h/mL

Question: And the Cmax (30 mg, Cohort 6 30 mg QD x 5 d, BIW maintenance dose (so in the source), C2D1, Geo Mean)?
Answer: 1150 ng/mL

Question: What about the AUC(0-t) (30 mg, Cohort 6 30 mg QD x 5 d, BIW maintenance dose (so in the source), C2D1, Geo Mean, read-out: AUC0-8 h) of the same compound?
Answer: 7290 ng·h/mL

Question: What about the Cmax (40 mg, Cohort 6 40 mg Twice Weekly after 5-day QD loading dose, C1D1, GM (CV %)) of the same compound?
Answer: 830 ng/mL

Question: What about the AUC(0-t) (40 mg, Cohort 6 40 mg Twice Weekly after 5-day QD loading dose, C1D1, GM (CV %), read-out: AUC0-8) of the same compound?
Answer: 4790 ng·h/mL

Question: What about the Cmax (40 mg, Cohort 6 40 mg Twice Weekly after 5-day QD loading dose, C1D8, GM (CV %)) of the same compound?
Answer: 1860 ng/mL

Question: What about the AUC(0-t) (40 mg, Cohort 6 40 mg Twice Weekly after 5-day QD loading dose, C1D8, GM (CV %), read-out: AUC0-8) of the same compound?
Answer: 12000 ng·h/mL

Question: What about the Tmax (40 mg, Cohort 6 40 mg Twice Weekly after 5-day QD loading dose, C1D8) of the same compound?
Answer: 1 h

Question: And the Cmax (40 mg, Cohort 6 40 mg Twice Weekly after 5-day QD loading dose, C2D1, GM (CV %))?
Answer: 1150 ng/mL

Question: And the AUC(0-t) (40 mg, Cohort 6 40 mg Twice Weekly after 5-day QD loading dose, C2D1, GM (CV %), read-out: AUC0-8)?
Answer: 7290 ng·h/mL

Question: What about the Tmax (40 mg, Cohort 6 40 mg Twice Weekly after 5-day QD loading dose, C2D1) of the same compound?
Answer: 1 h

Question: And the Cmax (40 mg, Cohort 6 40 mg Twice Weekly after 5-day QD loading dose, Day-7, GM (CV %))?
Answer: 454 ng/mL

Question: What about the AUC(0-t) (40 mg, Cohort 6 40 mg Twice Weekly after 5-day QD loading dose, Day-7, GM (CV %), read-out: AUC0-8) of the same compound?
Answer: 2250 ng·h/mL

Question: What about the Tmax (40 mg, Cohort 6 40 mg Twice Weekly after 5-day QD loading dose, Day-7) of the same compound?
Answer: 4 h

Question: And the Cmax (50 mg, Cohort 7 50 mg QD x 3 d, QD maintenance dose, C2D1, Geo Mean)?
Answer: 1250 ng/mL

Question: What about the AUC(0-t) (50 mg, Cohort 7 50 mg QD x 3 d, QD maintenance dose, C2D1, Geo Mean, read-out: AUC0-8 h) of the same compound?
Answer: 7980 ng·h/mL

Question: What about the Cmax (Cohort 7 20 mg QD after 3-day 50 mg QD loading dose, C1D1, GM (CV %)) of the same compound?
Answer: 440 ng/mL

Question: What about the AUC(0-t) (Cohort 7 20 mg QD after 3-day 50 mg QD loading dose, C1D1, GM (CV %), read-out: AUC0-8) of the same compound?
Answer: 2310 ng·h/mL

Question: And the Cmax (Cohort 7 20 mg QD after 3-day 50 mg QD loading dose, C1D8, GM (CV %))?
Answer: 1010 ng/mL

Question: What about the AUC(0-t) (Cohort 7 20 mg QD after 3-day 50 mg QD loading dose, C1D8, GM (CV %), read-out: AUC0-8) of the same compound?
Answer: 6740 ng·h/mL

Question: What about the Cmax (Cohort 7 20 mg QD after 3-day 50 mg QD loading dose, C2D1, GM (CV %)) of the same compound?
Answer: 840 ng/mL

Question: What about the Cmax (Cohort 7 20 mg QD after 3-day 50 mg QD loading dose, Day-7, GM (CV %)) of the same compound?
Answer: 272 ng/mL

Question: What about the AUC(0-t) (Cohort 7 20 mg QD after 3-day 50 mg QD loading dose, Day-7, GM (CV %), read-out: AUC0-8) of the same compound?
Answer: 800 ng·h/mL

Question: And the Tmax (Cohort 7 20 mg QD after 3-day 50 mg QD loading dose, Day-7)?
Answer: 5 h

Question: And the half-life (patients, dose cohorts 1 to 7, no accurate estimation)?
Answer: long half-life
